Experiment: xn = mol fraction of the nth substance listed
Conditions: 101 kPa, Liquid; for viscosity: Capillary tube (Ostwald / Ubbelohde) method; for mass density: Vibrating tube method

CCCCCCn1cc[n+](C)c1.F[B-](F)(F)F [1-hexyl-3-methylimidazolium tetrafluoroborate] + CCCO
Conditions	mass density, 293.15 K [kg/m3]	mass density, 303.15 K [kg/m3]	mass density, 313.15 K [kg/m3]	mass density, 323.15 K [kg/m3]	mass density, 333.15 K [kg/m3]	viscosity, 293.15 K [mPa·s]	viscosity, 303.15 K [mPa·s]	viscosity, 313.15 K [mPa·s]	viscosity, 323.15 K [mPa·s]	viscosity, 333.15 K [mPa·s]
x1 = 0.1004	–	–	–	–	–	–	–	1.999	–	–
x1 = 0.1006	895.6	887.71	879.74	871.67	863.47	3.744	2.705	–	1.502	1.123
x1 = 0.199	955.99	948.28	940.53	932.73	924.86	6.294	4.518	3.364	2.585	1.99
x1 = 0.3002	1001.98	994.41	986.83	979.23	971.61	10.08	7.158	5.324	4.056	3.14
x1 = 0.4993	1065.02	1057.71	1050.43	1043.18	1035.95	23.7	16.37	11.84	8.808	6.76
x1 = 0.6309	1094.51	1087.38	1080.27	1073.19	1066.15	41.96	27.85	19.44	14.25	10.74
x1 = 0.7571	1116.98	1110.01	1103.05	1096.1	1089.2	73.7	46.65	31.26	21.97	16.09
x1 = 0.8894	1135.92	1129.14	1122.32	1115.51	1108.71	139.42	82.45	52.28	35.15	24.67
x1 = 1	1149.24	1142.48	1135.79	1129.08	1122.37	232.65	130.02	78.24	50.3	34.02

— the NIST ThermoML archive (doi:10.1016/j.tca.2011.10.030)
